The values below come from publication PMC3956125 (Molecular cancer therapeutics, 2013).

In data set [1] the test system is A498 cells. In words: 3H-thymidine incorporation proliferation assay. It counts as cell-based, human.
For data set [2], the system named is panel of 320 kinases. Put plainly: kinase selectivity profile, single dose. It counts as biochemical.
The target in data set [3] is T1, CYP1A2 (Homo sapiens, UniProt P05177).
T1 sequence (P05177 1-516): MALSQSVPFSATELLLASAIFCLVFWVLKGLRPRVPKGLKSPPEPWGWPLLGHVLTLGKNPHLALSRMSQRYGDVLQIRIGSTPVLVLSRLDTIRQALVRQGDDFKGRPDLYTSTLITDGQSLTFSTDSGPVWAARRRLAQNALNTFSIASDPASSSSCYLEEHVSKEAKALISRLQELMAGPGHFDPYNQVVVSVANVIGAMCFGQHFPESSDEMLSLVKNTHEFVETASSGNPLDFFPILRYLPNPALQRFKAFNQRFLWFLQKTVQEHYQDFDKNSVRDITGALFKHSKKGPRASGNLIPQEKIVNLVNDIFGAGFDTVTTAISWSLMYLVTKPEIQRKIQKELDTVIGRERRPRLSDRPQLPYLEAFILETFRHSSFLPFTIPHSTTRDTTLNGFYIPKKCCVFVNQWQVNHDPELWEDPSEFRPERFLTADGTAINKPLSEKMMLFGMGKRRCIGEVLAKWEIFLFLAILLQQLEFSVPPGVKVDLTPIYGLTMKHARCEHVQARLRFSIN
In words: multiple CYP assay in human liver microsomes. To be noted: 10 μM. On the technique in general: Liver microsomes are a subcellular fraction often used to study metabolism.

Data set [4] concerns the target T2, CYP2B6 (Homo sapiens, UniProt P20813).
T2 sequence (P20813 1-491): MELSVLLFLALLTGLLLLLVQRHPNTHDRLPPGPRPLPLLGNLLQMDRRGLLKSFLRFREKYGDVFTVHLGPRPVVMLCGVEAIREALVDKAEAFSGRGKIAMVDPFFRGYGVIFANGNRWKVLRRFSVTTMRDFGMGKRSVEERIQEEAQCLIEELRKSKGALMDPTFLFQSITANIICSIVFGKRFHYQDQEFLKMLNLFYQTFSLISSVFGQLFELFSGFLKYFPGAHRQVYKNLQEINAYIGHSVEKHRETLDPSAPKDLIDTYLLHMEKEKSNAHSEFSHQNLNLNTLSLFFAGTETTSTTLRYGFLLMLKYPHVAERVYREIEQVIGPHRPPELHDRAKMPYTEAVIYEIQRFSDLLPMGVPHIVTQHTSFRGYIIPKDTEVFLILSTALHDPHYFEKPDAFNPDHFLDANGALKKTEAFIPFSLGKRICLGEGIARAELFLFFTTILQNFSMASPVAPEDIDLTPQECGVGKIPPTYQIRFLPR
In words: multiple CYP assay in human liver microsomes. As to conditions: 10 μM.

The subject of data set [5] is A498 cells. Put plainly: cell cycle analysis by flow cytometry. In kind it is cell-based, human. As to conditions: increasing concentrations, 24 hours. For orientation: A flow cytometer gives signals particle by particle.
The subject of data set [6] is A498 cells. In words: Western blot / immunofluorescence of marker proteins. It counts as cell-based, human.
Data set [7] relates to 786-O cells. Put plainly: 3H-thymidine incorporation proliferation assay. It counts as cell-based, human. (Uptake of a labelled nucleoside into DNA is a usual measure of proliferation.)
A short description of data set [8]: pharmacokinetic analysis of plasma levels. As to conditions: Sprague-Dawley rats.
For data set [9], the system named is SKOV3 ovarian cancer. To be noted: SKOV3 xenograft; cited from earlier work.
For data set [10], the system named is A498 tumor model. Put plainly: subcutaneous xenograft anti-tumor activity. In kind it is in vivo, mouse. To be noted: 4 weeks.
Data set [11] has as its system 786-O cells. In words: Western blot / immunofluorescence of marker proteins. In kind it is cell-based, human.
Data set [12] concerns A498 cells. In words: intracellular glucose measurement. In kind it is cell-based, human. To be noted: 24 hours.
Data set [13] concerns the target CYP2C9 (Homo sapiens, UniProt P11712). Put plainly: multiple CYP assay in human liver microsomes. To be noted: 10 μM.
For data set [14], the target named is CYP2C19 (Homo sapiens, UniProt P33261). Put plainly: multiple CYP assay in human liver microsomes. To be noted: 10 μM.
For data set [15], the system named is 786-O tumor model. Put plainly: subcutaneous xenograft anti-tumor activity. In kind it is in vivo, mouse. As to conditions: 4 weeks.
For data set [16], the system named is 786-O cells. Put plainly: Annexin-FITC/PI apoptosis assay. It counts as cell-based, human. To be noted: 48 hours.
The subject of data set [17] is A498 cells. In words: Annexin-FITC/PI apoptosis assay. To be noted: 48 hours. It counts as cell-based, human.
The nature of data set [18]: metabolic stability. As to conditions: human liver microsomes, after 60 min of incubation.
Data set [19] has as its target CYP3A4 (Homo sapiens, UniProt P08684). In words: multiple CYP assay in human liver microsomes. As to conditions: 10 μM.
Data set [20] deals with hERG (Homo sapiens, UniProt Q12809). In words: hERG inhibition. It counts as cell-based. As to conditions: read-out: IC50 for hERG inhibition; patch-clamp.
Data set [21] concerns 786-O cells. In words: intracellular glucose measurement. It counts as cell-based, human. To be noted: 24 hours.
The target of data set [22] is CYP2D6 (Homo sapiens, UniProt P10635). Put plainly: multiple CYP assay in human liver microsomes. To be noted: 10 μM.
Data set [23] concerns pancreatic and ovarian cancer cells. To be noted: cited from earlier work.
For data set [24], the system named is 786-O cells. In words: cell cycle analysis by flow cytometry. To be noted: increasing concentrations, 24 hours. In kind it is cell-based, human.
Setting [25] is: 20 mg/kg i.p. three times a week, p<0.05.
Setting [26] is: tumor tissue sections, 20 mg/kg i.p.

Chain of CYP3A4 (P08684 whole entry): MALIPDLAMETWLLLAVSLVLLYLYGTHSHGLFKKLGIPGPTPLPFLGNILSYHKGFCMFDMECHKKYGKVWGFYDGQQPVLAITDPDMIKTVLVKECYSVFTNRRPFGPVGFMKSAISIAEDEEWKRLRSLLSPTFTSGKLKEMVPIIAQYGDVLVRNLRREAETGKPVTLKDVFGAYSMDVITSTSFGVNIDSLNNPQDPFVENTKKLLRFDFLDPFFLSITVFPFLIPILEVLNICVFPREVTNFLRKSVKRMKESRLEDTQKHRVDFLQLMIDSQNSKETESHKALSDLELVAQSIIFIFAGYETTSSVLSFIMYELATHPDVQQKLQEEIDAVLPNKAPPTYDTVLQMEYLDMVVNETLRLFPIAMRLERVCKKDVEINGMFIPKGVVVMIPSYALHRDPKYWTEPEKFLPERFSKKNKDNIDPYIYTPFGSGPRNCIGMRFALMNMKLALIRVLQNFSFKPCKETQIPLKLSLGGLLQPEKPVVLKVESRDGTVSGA
Chain of CYP2C9 (P11712 whole entry): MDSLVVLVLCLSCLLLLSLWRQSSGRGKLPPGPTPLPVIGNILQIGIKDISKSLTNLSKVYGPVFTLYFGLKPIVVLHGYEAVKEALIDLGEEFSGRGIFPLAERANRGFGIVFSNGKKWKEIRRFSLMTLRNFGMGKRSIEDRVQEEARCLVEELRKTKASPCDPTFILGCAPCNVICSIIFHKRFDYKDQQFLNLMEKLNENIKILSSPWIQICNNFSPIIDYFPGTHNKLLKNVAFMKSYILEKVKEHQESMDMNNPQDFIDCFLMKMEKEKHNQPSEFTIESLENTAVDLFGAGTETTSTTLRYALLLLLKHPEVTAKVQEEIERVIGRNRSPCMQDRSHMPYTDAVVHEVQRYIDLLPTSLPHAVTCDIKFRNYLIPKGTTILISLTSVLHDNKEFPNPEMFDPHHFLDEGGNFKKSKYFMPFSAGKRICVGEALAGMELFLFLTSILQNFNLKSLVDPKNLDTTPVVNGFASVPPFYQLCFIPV
Chain of hERG (Q12809 whole entry): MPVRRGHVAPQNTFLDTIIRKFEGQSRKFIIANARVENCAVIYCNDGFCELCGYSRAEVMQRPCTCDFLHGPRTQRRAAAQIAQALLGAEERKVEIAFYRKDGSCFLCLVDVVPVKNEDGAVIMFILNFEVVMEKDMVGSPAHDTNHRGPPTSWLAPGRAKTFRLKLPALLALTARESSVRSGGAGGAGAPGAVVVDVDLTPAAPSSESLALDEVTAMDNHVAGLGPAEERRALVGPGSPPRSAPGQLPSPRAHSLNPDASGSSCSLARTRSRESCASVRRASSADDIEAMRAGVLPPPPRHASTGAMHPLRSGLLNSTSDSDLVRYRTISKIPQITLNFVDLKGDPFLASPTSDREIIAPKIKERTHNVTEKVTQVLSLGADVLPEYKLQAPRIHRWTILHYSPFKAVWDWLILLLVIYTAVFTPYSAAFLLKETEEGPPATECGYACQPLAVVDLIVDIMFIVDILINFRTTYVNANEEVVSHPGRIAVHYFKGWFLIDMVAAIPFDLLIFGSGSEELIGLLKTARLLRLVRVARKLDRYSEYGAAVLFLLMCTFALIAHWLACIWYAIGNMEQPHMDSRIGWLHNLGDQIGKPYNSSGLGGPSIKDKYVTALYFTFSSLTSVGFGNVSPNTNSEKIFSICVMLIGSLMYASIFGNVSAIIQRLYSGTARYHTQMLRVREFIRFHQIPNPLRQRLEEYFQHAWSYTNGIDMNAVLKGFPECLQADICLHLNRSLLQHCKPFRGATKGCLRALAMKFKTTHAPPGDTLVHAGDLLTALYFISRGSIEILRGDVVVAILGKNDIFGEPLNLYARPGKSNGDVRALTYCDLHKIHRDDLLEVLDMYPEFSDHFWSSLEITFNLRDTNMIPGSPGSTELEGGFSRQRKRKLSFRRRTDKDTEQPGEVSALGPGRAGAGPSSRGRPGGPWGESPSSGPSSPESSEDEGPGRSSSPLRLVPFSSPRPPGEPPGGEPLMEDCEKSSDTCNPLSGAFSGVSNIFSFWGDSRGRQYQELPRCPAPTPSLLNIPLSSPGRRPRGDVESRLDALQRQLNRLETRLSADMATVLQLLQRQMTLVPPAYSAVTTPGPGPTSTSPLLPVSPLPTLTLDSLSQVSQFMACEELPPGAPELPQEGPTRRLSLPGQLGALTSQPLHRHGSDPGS
Chain of CYP2D6 (P10635 whole entry): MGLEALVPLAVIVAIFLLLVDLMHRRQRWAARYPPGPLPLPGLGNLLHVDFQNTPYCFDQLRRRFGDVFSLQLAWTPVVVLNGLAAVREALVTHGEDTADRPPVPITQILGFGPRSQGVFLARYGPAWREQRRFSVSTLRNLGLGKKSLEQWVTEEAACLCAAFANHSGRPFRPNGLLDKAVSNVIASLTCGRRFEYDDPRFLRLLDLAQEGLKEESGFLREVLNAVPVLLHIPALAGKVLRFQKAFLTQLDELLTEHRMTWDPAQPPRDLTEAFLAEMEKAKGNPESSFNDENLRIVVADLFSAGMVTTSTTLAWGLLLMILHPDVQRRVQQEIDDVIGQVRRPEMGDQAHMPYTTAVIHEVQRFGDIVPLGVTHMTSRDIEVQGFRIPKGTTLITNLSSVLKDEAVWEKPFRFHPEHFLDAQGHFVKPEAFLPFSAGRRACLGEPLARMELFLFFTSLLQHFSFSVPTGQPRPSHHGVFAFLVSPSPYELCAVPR
Chain of CYP2C19 (P33261 whole entry): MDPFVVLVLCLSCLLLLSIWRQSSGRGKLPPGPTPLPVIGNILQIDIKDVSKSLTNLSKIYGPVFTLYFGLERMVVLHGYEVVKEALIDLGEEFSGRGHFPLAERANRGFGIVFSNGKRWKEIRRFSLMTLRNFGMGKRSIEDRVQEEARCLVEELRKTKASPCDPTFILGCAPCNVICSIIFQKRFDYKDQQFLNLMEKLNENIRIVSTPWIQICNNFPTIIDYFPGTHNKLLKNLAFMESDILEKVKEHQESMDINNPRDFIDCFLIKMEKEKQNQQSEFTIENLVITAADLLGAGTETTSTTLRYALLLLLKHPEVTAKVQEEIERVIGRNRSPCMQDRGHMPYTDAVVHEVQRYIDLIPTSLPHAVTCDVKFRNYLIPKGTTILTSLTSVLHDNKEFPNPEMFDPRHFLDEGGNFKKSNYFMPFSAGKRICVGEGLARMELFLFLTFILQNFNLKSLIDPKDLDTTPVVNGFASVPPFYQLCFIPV

Turning to `Cn1cc(C2=C(c3coc4ccc(F)cc34)C(=O)NC2=O)c2cc3c(cc21)OCO3` [9-ING-41], the inhibition in proliferation was ~ 40% in [1] (500 nM, 72 hours, A498) and ~ 40% in [7] (500 nM, 72 hours). The inhibition of proliferation result in [1] (1000 nM, 72 hours, A498) is recorded as “almost complete inhibition”; in data set [7] (1000 nM, 72 hours), “almost complete inhibition”. Moreover, the IC50 is below 1 µM in [1] (read-out: cell growth inhibition IC50, A498); below 1 µM in data set [7] (read-out: cell growth inhibition IC50); 21 µM in [20]. The “number of kinases with less than 50% remaining activity” value in [2] (10 μM single dose, duplicates, panel of 320 kinases) worked out at 35. The “discrimination between GSK-3α and GSK-3β” value in [2] (SI Table S1, 10 μM) is on record as “inhibits them equally”. Moreover, the CYP activity in [3] is ≥ 50 % of the control; in data set [4], ≥ 50 % of the control; in data set [13], ≥ 50 % of the control; in [14], ≥ 50 % of the control; in data set [19] it was 32 % of the control; in [22], ≥ 50 % of the control. Further, the “fraction of cells in the S phase” value in data set [5] and in data set [24] was “decreased significantly” throughout. Also, the “phosphorylation of AMPK-α and AMPK-β” value in data set [6] (24-48 hours, A498, Western blot) is “increase in phosphorylation”; in data set [11] (24-48 hours, Western blot), “increase in phosphorylation”. The “cyclin D1 protein expression” value is listed as “down-regulated” in [6] (24 hours, A498, Western blot) and “down-regulated” in [11] (24 hours, Western blot). The Id-1 expression entry is recorded as “decreased” in data set [6] (48 hours, A498, Western blot) and “decreased” in data set [11] (48 hours, Western blot). The Ksp-cadherin expression entry in data set [6] (48 hours, A498, Western blot) was “dose-dependent increase”; in data set [11] (48 hours, Western blot) it was “dose-dependent increase”. For the same compound, the “LC3B levels (autophagy)” value in data set [6] (A498, Western blot and immunofluorescence) is recorded as “increased levels”; in [11] (Western blot and immunofluorescence), “increased levels”. Further, in [8], the elimination half-life stood at 4.85 h. The compound further returned a volumes of distribution in [8] of at least 10 L/kg. Further, the “tumor progression in vivo” value in data set [9] was “attenuate tumor progression”. Besides, the “tumor growth vs control group” value in data set [10] (setting [25]) and in data set [15] (setting [25]) was “significant reduction of tumor growth” in each case. Moreover, the “abundance of Ki67-positive nuclei vs control group” value in data set [10] (setting [26]) and in data set [15] (setting [26]) was “significantly lower” each time. Moreover, the intracellular glucose entry in data set [12] and in data set [21] was “dose-dependent increase” throughout. For the same compound, the “percentage of early apoptotic cells” value in data set [16] (1000 nM, 786-O (DMSO 5.54%)) turned out to be 11.6%. Moreover, the induction of apoptosis result in data set [16] (786-O) and in data set [17] was “No significant induction of apoptosis” in each case. Also, the parent compound remained in data set [18] was 78.9%. The antiproliferative activity result in data set [23] is “potent antiproliferative agent”.

With “GSK-3β siRNA: Qiagen siRNA against GSK-3β, target sequence 5'-CCCAAATGTCAAACTACCAAA-3' (sense CAAAUGUCAAACUACCAAATT; antisense UUUGGUAGUUUGACAUUUGGG; chemistry not given here) [reference compound]”, the inhibition of proliferation result in data set [1] (siRNA 100 nM, 72 hours, A498, p<0.01) was “slight yet significant inhibition”; in data set [7] (siRNA 100 nM, 72 hours, p<0.01), “slight yet significant inhibition”.

In general, IC50 refers to the concentration that inhibits the measured activity by half.
